Structure (SMILES) | melting point [°C]
Clc1cncc(Oc2ccc(Cl)nn2)c1 | 112 to 114
COc1ccc(C#N)cc1Br | 122
N#Cc1cccc(CS(=O)(=O)Cl)c1 | 100 to 102
O=C1NCN(c2ccccc2)C12CCNCC2 | 183 to 185
CNC(=O)Oc1ccccc1C(C)C | 94
O=C1OCCOC(=O)c2ccccc2C(=O)OCCOC(=O)c2ccccc21 | 192
Oc1ccc(C(c2ccccc2)(c2ccccc2)c2ccccc2)cc1 | 283 to 289
C=C(NC(C)=O)C(=O)O | 184 to 187
CC(CCC(=O)NCC(=O)O)C1CCC2C3C(O)CC4CC(O)CCC4(C)C3CC(O)C12C (stereo not given) | 166
NC(=O)NNC(N)=O | 247 to 250
C=C1OC(=O)OC1(C)C | 26 to 30
ClC(Cl)(Br)C(Cl)(Cl)Br | 220 to 222
CC(=O)Nc1ccccc1/C=C/c1cc(/C=C/c2ccccc2)c([N+](=O)[O-])cc1[N+](=O)[O-] | 265
FC(F)(F)c1nnc(S)n1-n1cccc1 | 165
C=Cc1ccc(C=C)cc1 | 31
CC(=O)Nc1ccc(/C=C/c2ccc([N+](=O)[O-])cc2)c([N+](=O)[O-])c1 | 236
CCSc1nnc(NC(=O)C(F)(F)C(F)(F)C(F)(F)C(F)(F)C(F)(F)C(F)(F)C(F)(F)C(F)(F)F)s1 | 131
CC=CCCl | -65
O=S(=O)(Cl)c1ccc(-c2ccccn2)s1 | 87 to 89
OC1OC(C2CCCCC2)Cc2ccccc21 (stereo not given) | 87.2 to 90
CC1CCC2(C)CCC3(C)C(=CCC4C5(C)CCC(O)C(C)(C)C5CCC43C)C2C1C (stereo not given) | 186
NC(=O)c1cnccc1/C=C/c1ccccc1 | 200
O=C1c2ccccc2C(=O)N1c1ccc(Cl)cc1 | 197

Structure (SMILES) | melting point [°C]
COC(=O)NC1C(O)OC(CO)C(O)C1O (stereo not given) | 196
Oc1ccc(C(F)(F)F)cn1 | 145 to 148
O=Cc1ccc(-c2cccs2)s1 | 57 to 58
N#Cc1ccc(N)cc1C#N | 181
O=Cc1ccc(C#Cc2ccccc2)s1 | 91
O=S1(=O)OCC2C(CO1)C1(Cl)C(Cl)=C(Cl)C2(Cl)C1(Cl)Cl (stereo not given) | 182
O=[N+]([O-])c1ccc(CSc2ncnc3c2ncn3C2OC(CO)C(O)C2O)cc1 (stereo not given) | 194 to 196
NC(=S)Nc1cccc(Cl)c1Cl | 160 to 162
Cc1cc(O)cc(Br)c1 | 56.5
O=Cc1ccc(-c2cccc([N+](=O)[O-])c2)o1 | 156 to 158
Nc1c(Cl)cc(F)cc1Br | 56
CC(C)C1(Cc2ccco2)C(=O)NC(=O)NC1=O | 169
C[C@]12CC[C@@H](O)[C@H](O)[C@@H]1CC[C@@H]1[C@@H]2CC[C@]2(C)C(=O)CC[C@@H]12 | 233
COc1ccccc1C1CNCCN1 (stereo not given) | 80
NCc1cccc(-c2ccccc2)c1 | 28 to 30
COc1ccc2c3c1OC1C(O)C=CC4C(C2)[N+](C)([O-])CCC341 (stereo not given) | 232
NCc1ccc(-n2cccn2)cc1 | 75 to 78
Oc1c2cccc1Cc1cccc(c1O)Cc1cccc(c1O)Cc1cccc(c1O)C2 | 317
CC1CCC(C)(CNc2ccccc2)C1(C)C (stereo not given) | 59
C=CCNC(=O)C(C(F)(F)F)C(F)(F)F | 117
Clc1cccc(Cl)c1I | 64 to 67
COP(=S)(OC)Oc1ccc([N+](=O)[O-])c(C)c1 | 3.4
Fc1cccc(CBr)c1C(F)(F)F | 42

Structure (SMILES) | melting point [°C]
Nc1ncccc1C=O | 101
COc1ccc(Cl)nn1 | 91
OCCOc1ccccc1OCCO | 78 to 82
CC(=O)OCC12CC(OC(=O)CC(C)C)C(C)=CC1OC1C(O)C(OC(C)=O)C2(C)C12CO2 (stereo not given) | 152
Clc1cccc(CBr)c1Cl | 29 to 32
Cc1ccc(C(c2ccc(C)o2)c2cc(I)cc(I)c2O)o1 | 143
O=P(O)(O)CCN(CP(c1ccccc1)c1ccccc1)CP(c1ccccc1)c1ccccc1 | 146 to 148
CNC(=S)N(C)C | 126 to 127
CC1=N[C@]2(c3ccccc3)Oc3c(c4ccccc4c4ccccc34)O[C@@H]2O1 | 166
N#CC1(C(=O)c2ccccc2)C(c2ccccc2)NC(=O)NC1c1ccccc1 (stereo not given) | 215 to 216
Cn1c(/C(C#N)=N/Nc2c(Br)cc(Br)cc2Br)nc2ccccc21 | 180
CCCCCCCCCCCCCCCCC#N | 34
Nc1csc2nccnc12 | 88 to 89
O=C(CBr)c1c(Cl)cc(C(F)(F)F)cc1Cl | 46 to 48
CCC1CN2CCC1CC2C(O)c1ccnc2ccc(OC)cc12 (stereo not given) | 172
Clc1cccc(O[Si]23OCCN(CCO2)CCO3)c1 | 245
O=C1/C(=N/Nc2cccc(C(F)(F)F)c2)C(C(F)(F)F)=NN1c1ccccc1 | 160
C1=CC2C3C=CC(C3)C2C1 (stereo not given) | 33.6
CC(CC(=O)O)C(=O)O (stereo not given) | 118
N[C@H](CCO)C(=O)O | 205
O=C(O)c1cc(I)ccc1O | 196 to 201

Continued, values first:

melting point [°C] | Structure (SMILES)
141 to 142 | Cc1noc(C)c1C(=O)O
154 | COc1ccc(-c2cc(NN=c3c(C(F)(F)F)nc4ccccc4[nH]c3=O)[nH]n2)cc1
49 to 53 | COC(=O)c1ccc(OC)cc1O
310 | O=C1N=NC(=O)c2cc3c(cc21)CCC3
270 | CCC1CC(OP(=O)(O)O)CC(C)(C)N1O (stereo not given)
134 | COc1c(OC)c(OC(C)=O)c2c(Cl)cccc2c1OC(C)=O
59 | COC(=O)C(O)C(O)C(=O)OC (stereo not given)
161 | COc1cc(C=C(S)C(=O)O)ccc1O
170 to 171 | O=C(Cc1cc(CC(=O)c2ccccc2)c([N+](=O)[O-])cc1[N+](=O)[O-])c1ccccc1
124 to 126 | COC(=O)c1scc(S(C)(=O)=O)c1-n1cccc1
182 | CCN1CCCC1CNC(=O)c1cc(S(=O)(=O)CC)ccc1OC (stereo not given)
28.3 | CCCCCCCCCCCCN
198 | CC(C)S(=O)(=O)n1c(N)nc2ccc(C(=NO)c3ccccc3)cc21
161 | CCN(CCO)c1ccc(N=Nc2ccc([N+](=O)[O-])cc2)cc1
80 to 83 | COC(=O)C1=NC(C)(C)[N+]([O-])=C1
176 | CSc1n[nH]c(N)c1C(N)=O
136 to 139 | CCCSc1sc(C(=O)OCC)c2c1C(=O)CCC2
91 | COC(=O)c1ccc([N+](=O)[O-])c(O)c1
82 | COC(=O)c1cc(C)[nH]n1
39 | CCOC(=O)c1ccc(OC)cn1

melting point [°C] | Structure (SMILES)
155 to 157 | Cc1cccc2c(O)noc12
261 | CC12CCC(=O)C=C1CCC1C3CCC(O)(C(=O)CO)C3(C)CC(O)C12F (stereo not given)
-119 | CCCC(C)CC (stereo not given)
150 | CCOC(=O)c1cc2cc(F)ccc2[nH]1
69 to 70 | Cc1cc(Br)c(OCC(=O)NN)c2c1CCC2
193 to 194 | Cc1nc(COc2ccc(C(N)=NO)cc2)cs1
100 to 101 | Cc1ccc(-c2ccc(C=CC(=O)c3ccccc3)o2)cc1
97 to 99 | NCCSc1cc(C(F)(F)F)nc2ccccc12
130 | CC(C)(C)OC(=O)N[C@H](C(=O)O)c1ccc(F)cc1
187 | CC1=NN(CN2CCOCC2)C(=O)/C1=N\Nc1ccc(C(=O)O)cc1
59.5 | CCOC(=O)c1ccccc1C(=O)c1ccccc1
78 to 80 | O=C(Oc1cccc2c1CCC2=O)c1ccccc1
169 | Cc1oc(S(=O)(=O)N(C)C)cc1C(=O)O
74 to 76 | O=C(Cl)c1cc(-c2ccco2)on1
54 | CC(=O)Oc1cccc([N+](=O)[O-])c1
300 to 302 | O=C1[C@H]2CC3=C(CC=CC3)C[C@H]2C(=O)[C@H]2CC3=C(CC=CC3)C[C@@H]12
148 | C[C@]12CCC(=O)CC1CCC1=C2CC[C@]2(C)C(=O)CC[C@@H]12 (stereo not given in full)
119 to 122 | CCOC(=O)c1sc(SC)c2c1CCCC2O (stereo not given)
99 | CCn1c2ccccc2c2cc(N)ccc21
95 | CC(C)(C)C(=O)OCOc1ccccc1C(N)=O

melting point [°C] | Structure (SMILES)
201 to 203 | Cc1ccc(C)c(N/N=C(/C#N)c2nc(C)c(/N=N/c3ccccc3)s2)c1
80 to 82 | C/C=C/C1Nn2c(nnc2-c2ccc(OC)cc2)S1 (stereo not given)
262 | Cc1c(C)c(Br)c(Br)c(Br)c1Br
181 | CSc1cc2c(c3c1CCc1ccccc1-3)c(=O)n(-c1ccccc1)n2C
205 | CC1=C(C(=O)OC(C)C)C(c2ccco2)NC(=O)N1 (stereo not given)
59 | COC(=O)c1cc(Cl)cc(Cl)c1
80 to 84 | O=C1C2=C(CCCC2)C(=O)N1CO
-64 | CC(=O)OC(C)CC(C)C (stereo not given)
119 | COc1cc(C(=O)OCc2cccc(COC(=O)c3cc(OC)c(OC)c(OC)c3)n2)cc(OC)c1OC
230 | CCC1CC(N)(C(=O)O)CC(C)(C)N1O (stereo not given)
68 | Cc1coc2ccccc2c1=O
54 to 55 | O=[N+]([O-])c1ccc(OCC2CO2)cc1 (stereo not given)
155 | COC(=O)c1cc(Cl)c(NC(C)=O)cc1OC
212 | COC(=O)c1nc(Cl)c(N)nc1N
171 to 172 | CCOC(=O)c1c(-c2ccccc2)csc1NC(=O)c1ccc(Cl)cc1
161 to 162 | CC(C)C1(NC(=O)c2ccccc2)COCOC1=O (racemic)
138 | COc1ccc2c(c1)N(CC(C)CN1CCC(O)CC1)c1ccccc1S2 (stereo not given)
293 | Cn1c(=O)c(C2=NNC(=O)C2=CNc2ccc(Br)cc2)c(O)c2ccccc21

Reference: a melting point compilation (Tetko et al.)
